Laboratory results: patent US20170152241A9, “BICYCLIC DERIVATIVE CONTAINING PYRIMIDINE RING, AND PREPARATION METHOD THEREFOR” (YUHAN CORPORATION, priority 2013, published 2017)
Structures can show the parent of a compound that is named as a salt.

The compounds below were run against T1, human 5-HT4(a) (Homo sapiens, UniProt Q13639) (assay: Evaluation of agonistic activity in CHO-K1 cells expressing human 5-HT4(a) (GeneBlAzer HTR4-CRE-bla, beta-lactamase reporter)). Settings: 5 hours incubation, 8 concentrations.
T1 construct: host or cells: GeneBlAzer HTR4-CRE-bla CHO-K1 cells
T1 sequence (Q13639 1-387 isoform Q13639-2): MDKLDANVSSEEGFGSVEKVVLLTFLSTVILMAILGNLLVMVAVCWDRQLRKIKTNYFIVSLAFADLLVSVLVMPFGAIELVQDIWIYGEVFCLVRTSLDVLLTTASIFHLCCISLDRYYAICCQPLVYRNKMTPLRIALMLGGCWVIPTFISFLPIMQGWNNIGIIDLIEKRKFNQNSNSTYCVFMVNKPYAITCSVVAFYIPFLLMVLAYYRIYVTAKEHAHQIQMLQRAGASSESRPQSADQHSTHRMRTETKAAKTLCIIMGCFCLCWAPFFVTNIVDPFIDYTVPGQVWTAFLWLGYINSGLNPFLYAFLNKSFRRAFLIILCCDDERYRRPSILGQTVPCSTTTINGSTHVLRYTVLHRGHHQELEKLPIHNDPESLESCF
Format: cell-based
Method: Evaluation of Agonistic Activity in CHO-K1 Cells Expressing Human 5-HT4(a)
As CHO-K1 cells stably expressing human 5-HT4(a), we used the GeneBlAzer HTR4-CRE-bla CHO-K1 cells (Invitrogen corp.). The cells were cultured in DMEM medium supplemented with 10% bovine fetal serum (FBS), 25 mM HEPES (pH 7.4), 600 μg/ml Hygromycin B, 0.1 mM non-essential amino acids, 100 unit/ml penicillin and 100 μg/ml streptomycin under the condition of 37° C. and 5% CO2. Subcultures were performed three times per a week, each being at less than 80% confluence. At the previous day before treating test compounds, the cells were collected by using 0.5% trypsin/EDTA, and then diluted with a DMEM supplemented with 1% FBS, 25 mM HEPES and 0.1 mM non-essential amino acids into 3.125×10^5 cells/ml. 32 μl of the diluted cells were added into 384-well plate (10,000 cells/well) and then incubated overnight. The compounds to be used as a test material and a control drug were prepared as 500× of the various final treating concentrations of the drug with 100% DMSO, and then treated to the medium after diluting them to 100-folds to be 1% of the final DMSO concentration equally. After culturing overnight, 8 μl of the medium having 1% of DMSO was added into the cell-free control well and the non-stimulating control well, respectively. 8 μl of the control drug or the test material (which had been prepared by diluting 100-folds with the medium as mentioned in the above) having 1% of DMSO, were added to the respective remaining wells. After culturing in an incubator for 5 hours, the wells of the 384-plate were treated with the substrate solution (8 μl/well) prepared according to the vendor's instruction (i.e. Invitrogen's instruction), and then incubated in the dark room for additional 2 hours. Agonistic activities on 5-HT4 receptor were evaluated, on the basis of fluorescent values of the cleavage-products, which is generated cAMP-concentration dependently per equal time by beta-lactamase. After exciting to 410 nm of wavelength by using Genios Pro Fluorescence Detector, we measured the fluorescence values at two emission wavelengths (first wavelength: 465 nm, second wavelength: 535 nm). Data were analyzed on the basis of the ratio of fluorescence intensities of each well at the respective wavelengths. For all plates, the concentrations-response curve (1 pM-100 nM) of the control drug (Tegaserod) was included. Each EC50 values of the test compounds were calculated by non-linear regression analysis using GraphPad Prism program, based on the concentration-reactivity values according to 8-different concentrations of the test compounds.

Compound	EC50 [pM]
N#Cc1cc(N)cc(Nc2nc3c(c(N4CCC[C@@H](N)C4)n2)CCC3)c1 [Example 199, (R)-3-amino-5-[{4-(3-aminopiperidin-1-yl)-6,7-dihydro-5H-cyclopenta[d]pyrimidin-2-yl}amino]benzonitrile dihydrochloride]	20
COc1cccc2c(N3CCC[C@@H](NC(C)=O)C3)nc(Nc3cc(N)cc(C(F)(F)F)c3)nc12 [Example 64, (R)—N-[1-{2-(3-amino-5-trifluoromethylphenylamino)-8-methoxyquinazolin-4-yl}piperidin-3-yl]acetamide]	30
CC(=O)N[C@H]1CCN(c2nc(Nc3cc(N)cc(C#N)c3)nc3c2CCCC3)C1 [Example 88, (S)—N-[1-{2-(3-amino-5-cyanophenylamino)-5,6,7,8-tetrahydroquinazolin-4-yl}pyrrolidin-3-yl]acetamide]	10
CC(=O)N[C@@H]1CCCN(c2nc(Nc3ccc(N)c(C(F)(F)F)c3)nc3c(C)cccc23)C1 [Example 80, (R)—N-(1-[2-{4-amino-3-(trifluoromethyl)phenylamino}-8-methylquinazolin-4-yl]piperidin-3-yl)acetamide hydrochloride]	40
CN[C@@H]1CCCN(c2nc(Nc3cc(N)cc(C(F)(F)F)c3)nc3c2CCCC3)C1 [Example 213, (R)—N^1-[4-{3-(methylamino)piperidin-1-yl}-5,6,7,8-tetrahydroquinazolin-2-yl]-5-(trifluoromethyl)benzene-1,3-diamine dihydrochloride]	16
COc1ccc2nc(Nc3cc(N)cc(C(F)(F)F)c3)nc(N3CC[C@H](NC(C)=O)C3)c2c1 [Example 14, (S)—N-{1-(2-[{3-amino-5-(trifluoromethyl)-phenyl}amino]-6-methoxyquinazolin-4-yl)pyrrolidin-3-yl}-acetamide]	20
COc1cc2nc(Nc3cc(N)cc(C(F)(F)F)c3)nc(N3CC[C@H](NC(C)=O)C3)c2cc1OC [Example 7, (S)—N-{1-(2-[{3-amino-5-(trifluoromethyl)-phenyl}amino]-6,7-dimethoxyquinazolin-4-yl)pyrrolidin-3-yl}acetamide]	30
CNC(=O)[C@@H]1CCCN(c2nc(Nc3ccc(N)c([N+](=O)[O-])c3)nc3c2CCC3)C1 [Example 224, (R)-1-[2-{(4-amino-3-nitrophenyl)amino}-6,7-dihydro-5H-cyclopenta[d]pyrimidin-4-yl]-N-methylpiperidine-3-carboxamide hydrochloride]	8.7
CNC(=O)[C@@H]1CCCN(c2nc(Nc3cc(N)cc(C(F)(F)F)c3)nc3c2CCCC3)C1 [Example 123, (R)-1-[2-{3-amino-5-(trifluoromethyl)phenylamino}-5,6,7,8-tetrahydroquinazolin-4-yl]-N-methylpiperidine-3-carboxamide]	10
CC(=O)N[C@H]1CCN(c2nc(Nc3ccc(Cl)c(N)c3)nc3ccccc23)C1 [Example 133, (S)—N-(1-[2-{(3-amino-4-chlorophenyl)amino}quinazolin-4-yl]pyrrolidin-3-yl)acetamide]	30
CC(=O)N[C@@H]1CCCN(c2nc(Nc3ccc(N)c([N+](=O)[O-])c3)nc3c2CCC3)C1 [Example 198, (R)—N-(1-[2-{(4-amino-3-nitrophenyl)amino}-6,7-dihydro-5H-cyclopenta[d]pyrimidin-4-yl]piperidin-3-yl}acetamide hydrochloride]	10
N#Cc1cc(N)cc(Nc2nc3c(c(N4CC[C@H](N)C4)n2)CCC3)c1 [Example 174, (S)-3-amino-5-[{4-(3-aminopyrrolidin-1-yl)-6,7-dihydro-5H-cyclopenta[d]pyrimidin-2-yl}amino]benzonitrile dihydrochloride]	20
CN[C@@H]1CCCN(c2nc(Nc3cc(N)cc(C#N)c3)nc3c2CCC3)C1 [Example 204, (R)-3-amino-5-([4-{3-(methylamino)piperidin-1-yl}-6,7-dihydro-5H-cyclopenta[d]pyrimidin-2-yl]amino)benzonitrile dihydrochloride]	10

Second part, the compound after the results:

EC50 [pM]	Compound
30	N#Cc1cc(N)cc(Nc2nc(N3CC[C@H](N)C3)c3ccccc3n2)c1 [Example 31, (S)-3-amino-5-{4-(3-aminopyrrolidin-1-yl)-quinazolin-2-ylamino}benzonitrile dihydrochloride]
60	CC(=O)N[C@H]1CCN(c2nc(Nc3cc(N)cc(C#N)c3)nc3cc(Cl)ccc23)C1 [Example 81, (S)—N-[1-{2-(3-amino-5-cyanophenylamino)-7-chloroquinazolin-4-yl}pyrrolidin-3-yl]acetamide hydrochloride]
10	CC(=O)N[C@H]1CCN(c2nc(Nc3cc(N)cc(C#N)c3)nc3c2CCC3)C1 [Example 168, (S)—N-(1-[2-{(3-amino-5-cyanophenyl)amino}-6,7-dihydro-5H-cyclopenta[d]pyrimidin-4-yl]pyrrolidin-3-yl)acetamide hydrochloride]
10	COc1ccc2nc(Nc3cc(N)cc(C#N)c3)nc(N3CCC[C@@H](NC(C)=O)C3)c2c1 [Example 21, (R)—N-(1-[2-{(3-amino-5-cyanophenyl)-amino}-6-methoxyquinazolin-4-yl]piperidin-3-yl)acetamide]
10	CCN[C@H]1CCN(c2nc(Nc3cc(N)cc(C#N)c3)nc3ccccc23)C1 [Example 141, (S)-3-amino-5-([4-{3-(ethylamino)pyrrolidin-1-yl}quinazolin-2-yl]amino)benzonitrile]
30	N#Cc1cc(N)cc(Nc2nc(N3CC[C@H](NC(=O)Cc4cccs4)C3)c3ccccc3n2)c1 [Example 37, (S)—N-[1-{2-(3-amino-5-cyanophenylamino)quinazolin-4-yl}pyrrolidin-3-yl]-2-(thiophen-2-yl)acetamide]
2.4	CCCCCN[C@H]1CCN(c2nc(Nc3cc(N)cc(C#N)c3)nc3ccccc23)C1 [Example 41, (S)-3-amino-5-[4-{3-(pentylamino)-pyrrolidin-1-yl}quinazolin-2-ylamino]benzonitrile]
390	CC(=O)N[C@H]1CCN(c2nc(Nc3cc(N)cc(C#N)c3)nc3cc(C(F)(F)F)ccc23)C1 [Example 28, (S)—N-(1-[2-{(3-amino-5-cyanophenyl)amino}-7-(trifluoromethyl)quinazolin-4-yl]pyrrolidin-3-yl)-acetamide]
90	Nc1cc(Nc2nc(N3CCC[C@@H](N)C3)c3ncccc3n2)cc(C(F)(F)F)c1 [Example 167, (R)—N^1-{4-(3-aminopiperidin-1-yl)pyrido[3,2-d]pyrimidin-2-yl}-5-trifluoromethyl)benzene-1,3-diamine dihydrochloride]
10	COc1ccc2c(N3CC[C@H](NC(C)=O)C3)nc(Nc3cc(N)cc(C#N)c3)nc2c1 [Example 147, (S)—N-(1-[2-{(3-amino-5-cyanophenyl)amino}-7-methoxyquinazolin-4-yl]pyrrolidin-3-yl)acetamide]
40	CC(=O)N[C@H]1CCN(c2nc(Nc3cc(N)cc(C#N)c3)nc3cc(F)ccc23)C1 [Example 85, (S)—N-[1-{2-(3-amino-5-cyanophenylamino)-7-fluoroquinazolin-4-yl}pyrrolidin-3-yl]acetamide hydrochloride]
50	CC(C)N[C@H]1CCN(c2nc(Nc3cc(N)cc(C#N)c3)nc3ccccc23)C1 [Example 46, (S)-3-amino-5-[4-{3-(isopropylamino)pyrrolidin-1-yl}quinazolin-2-ylamino]benzonitrile]
80	CN[C@H]1CCN(c2nc(Nc3cc(N)cc(C#N)c3)nc3cccc(C)c23)C1 [Example 68, (S)-3-amino-5-[5-methyl-4-{3-(methylamino)pyrrolidin-1-yl}quinazolin-2-ylamino]benzonitrile]
10	CCCN[C@H]1CCN(c2nc(Nc3cc(N)cc(C#N)c3)nc3cccnc23)C1 [Example 159, (S)-3-amino-5-([4-{3-(propylamino)pyrrolidin-1-yl}pyrido[3,2-d]pyrimidin-2-yl]amino)benzonitrile dihydrochloride]
10	CCCN[C@H]1CCN(c2nc(Nc3cc(N)cc(C#N)c3)nc3c2CCC3)C1 [Example 184, (S)-3-amino-5-([4-{3-(propylamino)pyrrolidin-1-yl}-6,7-dihydro-5H-cyclopenta[d]pyrimidin-2-yl]amino)benzonitrile dihydrochloride]
10	CCN[C@H]1CCN(c2nc(Nc3cc(N)cc(C#N)c3)nc3c2CCCC3)C1 [Example 105, (S)-3-amino-5-[4-{3-(ethylamino)pyrrolidin-1-yl}-5,6,7,8-tetrahydroquinazolin-2-ylamino]benzonitrile dihydrochloride]
